US20240034743A9, “TRICYCLIC COMPOUNDS AS EGFR INHIBITORS” (QILU PHARMACEUTICAL CO., LTD., priority 2020, published 2024)
Where two headings read alike, the source gives them in different places.

What was measured:
[1] = system: Ba/F3_Del19/T790M/C797S cells; assay: Ba/F3_Del19/T790M/C797S cell proliferation inhibition assay (CellTiter-Glo); type: cell-based; conditions: Mus musculus
Description: Ba/F3_Del19/T790M/C797S Cell Proliferation Inhibition Assay
In the assay, the inhibition effect of the compounds on the proliferation of Ba/F3_Del19/T790M/C797S cells was tested by adopting a CellTiter-Glo method, and the concentration IC50 of the compound for inhibiting half maximal growth of cells was obtained.
Ba/F3_Del19/T790M/C797S, purchased from Kyinno Biotechnology Co., Ltd. 1640 medium, fetal bovine serum (FBS), Penicillin-Streptomyces, and GlutaMAX-I Supplement, purchased from GIBCO.
(§1) Brigatinib, purchased from Selleck.
(§2) CellTiter-Glo reagent, purchased from Promega.
1) Ba/F3_Del19/T790M/C797S cells were seeded in a 384-well plate at a density of 700 cells/well with 30 μL/well.
(§3) 2) Day 0: […] of gradiently-diluted compounds to be tested with a final concentration of DMSO of 0.1% was added to plate using Echo, and the plate was incubated in a cell incubator for 72 h (37° C., 5% CO2). […] of DMSO was added into each well in blank control group.
(§4) 3) Day 3: 30 μL Cell Titer-Glo reagent was added to each well, and the plate was in the dark under room temperature for 30 min.
(§5) 4) The chemiluminescent signal was detected by an Envision plate reader (PerkinElmer).
Data analysis was performed using GraphPad Prism 6 software to give the IC50 for compounds.

[2] = system: Ba/F3_L858R/T790M/C797S cells; assay: Ba/F3_L858R/T790M/C797S cell proliferation inhibition assay (CellTiter-Glo); type: cell-based; conditions: Mus musculus
Description: Ba/F3_L858R/T790M/C797S Cell Proliferation Inhibition Assay
In the assay, the inhibition effect of the compounds on the proliferation of Ba/F3_L858R/T790M/C797S cells was tested by adopting a CellTiter-Glo method, and the concentration IC50 of the compound for inhibiting half maximal growth of cells was obtained.
Ba/F3_L858R/T790M/C797S cells were constructed by Pharmaron Beijing Co., Ltd.
1640 medium, fetal bovine serum (FBS), Penicillin-Streptomyces, and GlutaMAX-I Supplement, purchased from GIBCO.
as §1, §2
1) Ba/F3_L858R/T790M/C797S cells were seeded in a 384-well plate at a density of 700 cells/well with 30 μL/well.
as §3, §4, §5
(§6) 5) Data analysis was performed using GraphPad Prism software to give the IC50 for compounds.

EGFR WT (wild type EGFR) = EGFR WT (wild type EGFR) (Homo sapiens (Human), UniProt P00533); assay: In vitro enzymatic TR-FRET (HTRF KinEASE-TK) kinase assay, EGFR WT; type: biochemical
Chain of EGFR WT (wild type EGFR) (P00533 25-1210): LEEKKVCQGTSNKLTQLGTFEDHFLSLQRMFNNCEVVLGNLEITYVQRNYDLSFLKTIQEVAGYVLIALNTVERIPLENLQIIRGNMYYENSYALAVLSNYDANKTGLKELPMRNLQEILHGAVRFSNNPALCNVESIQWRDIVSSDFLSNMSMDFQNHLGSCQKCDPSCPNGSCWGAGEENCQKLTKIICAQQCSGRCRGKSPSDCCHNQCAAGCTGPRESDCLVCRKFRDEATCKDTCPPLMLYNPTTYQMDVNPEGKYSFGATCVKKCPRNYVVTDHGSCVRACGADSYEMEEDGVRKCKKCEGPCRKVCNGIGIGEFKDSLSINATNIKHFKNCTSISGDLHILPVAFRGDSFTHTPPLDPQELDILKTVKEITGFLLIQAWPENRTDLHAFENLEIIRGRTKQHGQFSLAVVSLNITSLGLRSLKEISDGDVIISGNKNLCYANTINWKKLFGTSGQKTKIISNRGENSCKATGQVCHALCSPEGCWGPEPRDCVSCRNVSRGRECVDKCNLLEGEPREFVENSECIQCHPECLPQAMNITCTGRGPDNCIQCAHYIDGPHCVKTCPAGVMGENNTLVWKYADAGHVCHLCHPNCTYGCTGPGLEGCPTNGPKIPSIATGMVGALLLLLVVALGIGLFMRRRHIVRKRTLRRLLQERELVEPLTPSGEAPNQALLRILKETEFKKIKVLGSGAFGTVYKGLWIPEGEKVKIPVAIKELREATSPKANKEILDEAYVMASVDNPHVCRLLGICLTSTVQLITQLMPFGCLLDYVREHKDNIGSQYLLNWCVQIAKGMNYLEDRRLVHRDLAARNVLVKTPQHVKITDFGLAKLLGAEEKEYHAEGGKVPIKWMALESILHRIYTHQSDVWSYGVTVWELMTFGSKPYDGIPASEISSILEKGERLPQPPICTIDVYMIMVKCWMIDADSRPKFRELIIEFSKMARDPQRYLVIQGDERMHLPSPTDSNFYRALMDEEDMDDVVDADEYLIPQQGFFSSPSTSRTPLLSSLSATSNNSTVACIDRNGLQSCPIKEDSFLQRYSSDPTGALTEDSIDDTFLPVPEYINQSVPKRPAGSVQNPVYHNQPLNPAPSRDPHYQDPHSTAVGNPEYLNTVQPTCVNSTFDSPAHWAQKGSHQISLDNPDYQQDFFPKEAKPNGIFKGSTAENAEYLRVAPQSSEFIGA
Description: (I) In Vitro Enzymatic Experiment for EGFR WT and EGFR L858R/T790M/C797S
In the assay, the inhibition effect of the compound on the kinase activity of EGFR WT (wild type EGFR) and EGFR L858R/T790M/C797S was tested by adopting a time-resolved fluorescence resonance energy transfer (TR-FRET) method, and half maximal inhibitory concentration IC50 of the compound on the kinase activity of EGFR was obtained.
EGFR recombinase and EGFR L858R/T790M/C797S recombinase, purchased from Signalchem.
HTRF KinEASE-TK kit, purchased from Cisbio.
DTT, MnCl2, and MgCl2, purchased from Sigma.
ATP, purchased from Promega.
as §1
1) 1× working solution was prepared: 5 mM MgCl2; 1 mM DTT; 1 mM MnCl2 and 1× kinase buffer (in kit).
2) […] of gradiently-diluted compound was transferred to a 384-well plate using Echo 550 (Labcyte).
3) 5 μL of 2× EGFR WT or EGFR L858R/T790M/C797S recombinase solution was added to the 384-well plate, and the plate was incubated at room temperature for 10 min.
4) 5 μL of 2× TK-substrate-biotin substrate solution (containing ATP) was added to the 384-well plate, and the plate was incubated at room temperature for 40 min.
5) 5 μL of assay solution containing Sa-XL 665 HTRF and 5 μL of TK-antibody-Cryptatewas were added to the plate, and the plate was incubated at room temperature for 1 h.
6) The fluorescence signal values at 615 nm and 665 nm were measured for each well using an Envision microplate reader (PerkinElmer).
7) The ratio of fluorescence signal values at 665 nm and 615 nm was calculated for each well.
8) Data analysis was performed using GraphPad Prism software to give the IC50 for compounds.

A431 cells (EGFR WT) = assay: A431 cell proliferation inhibition assay (CellTiter-Glo); type: cell-based; conditions: Homo sapiens
Description: A431 Cell Proliferation Inhibition Assay
In the assay, the inhibition effect of the compounds on the proliferation of A431 cells was tested by adopting a CellTiter-Glo method, and the concentration IC50 of the compound for inhibiting half maximal growth of cells was obtained.
A431 cells, purchased from ATCC.
DMEM medium, fetal bovine serum (FBS), and Penicillin-Streptomycin, purchased from GIBCO.
as §1, §2
1) A431 cells were seeded in a 384-well plate at a density of 800 cells/well with 30 μL/well, and the plate was cultured in a cell incubator for 24 h (37° C., 5% CO2).
as §3, §4, §5, §6

[3] = BaF3, cell proliferation, 72 h, CellTiter-Glo, read-out: Ba/F3 (Del19/T790M/C797S) IC50
[4] = BaF3, cell proliferation, 72 h, CellTiter-Glo, read-out: Ba/F3 (L858R/T790M/C797S) IC50
[5] = kinase activity, TR-FRET, read-out: EGFR (WT) IC50
[6] = A-431, cell proliferation, 72 h, CellTiter-Glo, read-out: A431 EGFR WT IC50
[7] = BaF3, 72 h, read-out: Ba/F3 (Del19/T790M/C797S) IC50(nM)
[8] = BaF3, 72 h, read-out: Ba/F3 (L858R/T790M/C797S) IC50(nM)
[9] = A-431, 72 h, read-out: A431 EGFR WT IC50(nM)

IC50 [1, 3]	IC50 [2, 4]	IC50 (EGFR WT (wild type EGFR); [5])	IC50 (A431 cells (EGFR WT); [6])	Structure (SMILES)	IC50 [1, 7]	IC50 [2, 8]	IC50 (A431 cells (EGFR WT); [9])	IC50 (EGFR WT (wild type EGFR))
< 10 nM	10 to 50 nM	10 to 50 nM	100 to 1000 nM	COc1cc2c(cc1Nc1ncc(Br)c(Nc3ccccc3P(C)(C)=O)n1)-c1cnn(C)c1CC=C2 [Compound 40]	–	–	–	–
100 to 1000 nM	100 to 1000 nM	1 to 10 nM	> 1000 nM	COc1cc2c(cc1Nc1ncc(Br)c(Nc3ccccc3S(=O)(=O)N(C)C)n1)-c1cnn(C)c1CCN2C(C)C [Compound 126]	–	–	–	–
10 to 50 nM	10 to 50 nM	10 to 50 nM	100 to 1000 nM	COc1cc2c(cc1Nc1ncc(Br)c(Nc3ccccc3P(C)(C)=O)n1)-c1ccnn1CCN2C [Compound 29]	–	–	–	–
< 10 nM	< 10 nM	1 to 10 nM	100 to 1000 nM	COc1cc2c(cc1Nc1ncc(Br)c(Nc3ccccc3P(C)(C)=O)n1)-c1cnn(C)c1CCN2CCN1CCC(F)CC1 [Compound 41]	–	–	–	–
< 10 nM	10 to 50 nM	1 to 10 nM	100 to 1000 nM	COc1cc2c(cc1Nc1ncc(Br)c(Nc3cccnc3P(C)(C)=O)n1)-c1cnn(C)c1CCN2C [Compound 44]	–	–	–	–
< 10 nM	< 10 nM	10 to 50 nM	100 to 1000 nM	COc1cc2c(cc1Nc1ncc(C(F)(F)F)c(Nc3ccccc3P(C)(C)=O)n1)-c1cnn(C)c1CCN2C [Compound 26]	–	–	–	–
10 to 50 nM	50 to 100 nM	10 to 50 nM	100 to 1000 nM	COc1cc2c(cc1Nc1ncc(Br)c(Nc3ccccc3P(C)(C)=O)n1)-c1cnn(C)c1CCC2 [Compound 38]	–	–	–	–
10 to 50 nM	10 to 50 nM	10 to 50 nM	> 1000 nM	COc1cc2c(cc1Nc1nc(Nc3ccccc3P(C)(C)=O)c3sccc3n1)-c1cnn(C)c1CCN2C [Compound 58]	–	–	–	–
< 10 nM	10 to 50 nM	1 to 10 nM	100 to 1000 nM	COc1cc2c(cc1Nc1ncc(Br)c(Nc3ccccc3P(C)(C)=O)n1)-c1cn[nH]c1CCN2C [Compound 37]	–	–	–	–
10 to 50 nM	10 to 50 nM	10 to 50 nM	100 to 1000 nM	COc1cc2c(cc1Nc1ncc(Br)c(Nc3ccccc3P(C)(C)=O)n1)-c1cnn(C)c1CNC2 [Compound 49]	–	–	–	–

More lines, now with the values behind:

Structure (SMILES)	IC50 [1, 3]	IC50 [2, 4]	IC50 (EGFR WT (wild type EGFR); [5])	IC50 (A431 cells (EGFR WT); [6])	IC50 [1, 7]	IC50 [2, 8]	IC50 (A431 cells (EGFR WT); [9])	IC50 (EGFR WT (wild type EGFR))
COc1cc2c(cc1Nc1ncc(Br)c(Nc3ccc4nccnc4c3N(C)S(=O)(=O)C3CC3)n1)-c1cnn(C)c1CCN2C [Compound 21]	< 10 nM	< 10 nM	1 to 10 nM	100 to 1000 nM	–	–	–	–
COc1cc2c(cc1Nc1ncc(Br)c(Nc3ccc4nccnc4c3C(=O)N(C)C)n1)-c1cnn(C)c1CCN2C(C)C [Compound 109]	–	–	1 to 10 nM	–	10 to 50 nM	10 to 50 nM	100 to 1000 nM	–
COc1cc2c(cc1Nc1ncc(Br)c(Nc3ccc4nccnc4c3CNS(C)(=O)=O)n1)-c1cnn(C)c1CCN2C(C)C [Compound 137]	10 to 50 nM	10 to 50 nM	1 to 10 nM	100 to 1000 nM	–	–	–	–
COc1cc2c(cc1Nc1ncc(Cl)c(Nc3ccc4nccnc4c3NS(C)(=O)=O)n1)-c1cnn(C)c1CCN2C(C)C [Compound 103]	< 10 nM	< 10 nM	1 to 10 nM	100 to 1000 nM	–	–	–	–
COc1cc2c(cc1Nc1ncc(Br)c(Nc3ccc4nccnc4c3NS(C)(=O)=O)n1)-c1cnn(C)c1CCN2C#N [Compound 113]	< 10 nM	10 to 50 nM	1 to 10 nM	100 to 1000 nM	–	–	–	–
COc1cc2c(cc1Nc1ncc(Br)c(Nc3ccc4nccnc4c3P(C)(C)=O)n1)-c1cnn(C)c1CCN2 [Compound 16]	–	–	1 to 10 nM	–	< 10 nM	< 10 nM	50 to 100 nM	–
COc1cc2c(cc1Nc1ncc(Br)c(Nc3ccc4nccnc4c3P(C)(C)=O)n1)-c1cnn(C)c1CCN2CC1CC1 [Compound 12]	< 10 nM	< 10 nM	1 to 10 nM	100 to 1000 nM	–	–	–	–
CCn1ncc2c1CCN(C)c1cc(OC)c(Nc3ncc(Br)c(Nc4ccccc4P(C)(C)=O)n3)cc1-2 [Compound 39]	–	–	10 to 50 nM	–	10 to 50 nM	10 to 50 nM	100 to 1000 nM	–
COc1cc2c(cc1Nc1ncc(Br)c(Nc3ccc4nccnc4c3N(C)S(C)(=O)=O)n1)-c1cnn(C)c1CCN2C1CCOCC1 [Compound 138]	< 10 nM	< 10 nM	1 to 10 nM	100 to 1000 nM	–	–	–	–
COc1cc2c(cc1Nc1ncc(Br)c(Nc3ccc4nccnc4c3N(C(C)C)S(C)(=O)=O)n1)-c1cnn(C)c1CCN2 [Compound 123]	–	–	–	–	< 10 nM	< 10 nM	100 to 1000 nM	1 to 10 nM
COc1cc2c(cc1Nc1ncc(Br)c(Nc3ccc4nccnc4c3P(C)(C)=O)n1)-c1cnn(C)c1CCN2C(C)=O [Compound 15]	< 10 nM	10 to 50 nM	10 to 50 nM	100 to 1000 nM	–	–	–	–
COc1cc2c(cc1Nc1ncc(Br)c(Nc3ccn4ccnc4c3NS(C)(=O)=O)n1)-c1cnn(C)c1CCN2C(C)C [Compound 110]	10 to 50 nM	50 to 100 nM	1 to 10 nM	100 to 1000 nM	–	–	–	–
COc1cc2c(cc1Nc1ncc(Br)c(Nc3ccc4nccnc4c3NC(C)=O)n1)-c1cnn(C)c1CCN2C(C)C [Compound 106]	< 10 nM	10 to 50 nM	1 to 10 nM	100 to 1000 nM	–	–	–	–
